Test results published in PubChem BioAssay AID200 (DTP/NCI, 2004).
Where “and” joins values, the source holds several entries; their conditions need not be identical. Equal entries are not always repeated. Toxic doses and inconclusive results are not listed. Where a SMILES comes first, the peptide text is derived from it. The star is where a group is joined. Cbz = O=C(OCc1ccccc1)*

Tested on: B6C3F1 mice, B16 melanoma ip, median survival T/C
Assay: NCI In Vivo Anticancer Drug Screen. Data for tumor model B16 Melanoma (intraperitoneal) in B6C3F1 mice
Conditions: endpoint: median survival time, schedule: Q01DX009 (ip), higher = longer survival
Procedure, shortened: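 Tumor-bearing mice received test compound; a separate group got vehicle only. Survival was then compared, with results reported as treated over control.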

[1] = dose: 400.0 mg/kg/injection, vehicle: saline with Tween-80

What does the source list for CN=C(N)N/N=C(\C)c1ccc2sc3ccc(/C(C)=N/NC(N)=NC)cc3c2c1?
T/C (dose: 25.0 mg/kg/injection, vehicle: saline with Tween-80): 108 % of control; T/C (dose: 50.0 mg/kg/injection, vehicle: saline with Tween-80): 113 % of control; T/C (dose: 100.0 mg/kg/injection, vehicle: saline with Tween-80): 120 % of control; T/C (dose: 200.0 mg/kg/injection, vehicle: saline with Tween-80): 119 % of control; T/C [1]: 95 % of control

How did the T/C (dose: 0.38 mg/kg/injection, vehicle: water) turn out when C/C=C/C=C\C=C/C(O)CC(OP(=O)(O)O)C(C)(O)/C=C/C1CC=CC(=O)O1 (centres undefined) was run?
Its T/C is 107 % of control.

What about the T/C (dose: 0.75 mg/kg/injection, vehicle: water) of the same molecule?
Its T/C is 117 % of control (2×) and 123 % of control.

And the T/C (dose: 6.0 mg/kg/injection, vehicle: water)?
The T/C was 157 % of control and 184 % of control.

Which T/C (dose: 100.0 mg/kg/injection, vehicle: Klucel (hydroxypropylcellulose) (HPC)) does the source give for COC(=O)C(NC(=O)C(NC(=O)OCc1ccccc1)C(C)O)C(C)C (stereo not drawn) (Cbz-Thr-Val-OMe; configuration not given here) here?
Its T/C is 94 % of control.

What about the T/C (dose: 200.0 mg/kg/injection, vehicle: Klucel (hydroxypropylcellulose) (HPC)) of the same molecule?
Its T/C is 93 % of control.

What about the T/C (dose: 400.0 mg/kg/injection, vehicle: Klucel (hydroxypropylcellulose) (HPC)) of the same molecule?
Its T/C is 108 % of control.

Which results are given for NC(N)=NCCCC(N)C(=O)NCC(=O)NCC(=O)O (centres undefined) (HELM PEPTIDE1{[N=C(N)NCCCC(N)C(=O)[*:2]].G.G}$$$$V2.0)?
T/C (dose: 100.0 mg/kg/injection, vehicle: saline): 107 % of control; T/C (dose: 200.0 mg/kg/injection, vehicle: saline): 102 % of control; T/C (dose: 400.0 mg/kg/injection, vehicle: saline): 111 % of control

Which T/C (dose: 0.31 mg/kg/injection, vehicle: saline) does the source give for CC(C)CC(NC(=O)CF)C(=O)O (centres undefined) here?
The T/C was 95 % of control.

And the T/C (dose: 0.63 mg/kg/injection, vehicle: saline)?
Its T/C is 93 % of control.

And the T/C (dose: 1.25 mg/kg/injection, vehicle: saline)?
Its T/C is 90 % of control.

What about the T/C (dose: 2.5 mg/kg/injection, vehicle: saline) of the same molecule?
Its T/C is 89 % of control.

What about the T/C (dose: 5.0 mg/kg/injection, vehicle: saline) of the same molecule?
Its T/C is 96 % of control.

What about the T/C (dose: 10.0 mg/kg/injection, vehicle: saline) of the same molecule?
The T/C was 100 % of control.

O=c1[nH]c(=O)n(C2CC(O)C(CO)O2)cc1I (centres undefined) was tested. Which T/C [1] did it give?
Its T/C is 111 % of control.

Which T/C (dose: 3.75 mg/kg/injection, vehicle: Klucel (hydroxypropylcellulose) (HPC)) does the source give for C/C=C1/C(=O)O[C@]23C=C[C@@H]4C(C(=O)OC)=CO[C@H](O[C@@H]12)[C@@H]43 here?
Its T/C is 102 % of control.

And the T/C (dose: 7.5 mg/kg/injection, vehicle: Klucel (hydroxypropylcellulose) (HPC))?
The T/C was 91 % of control.

What about the T/C (dose: 15.0 mg/kg/injection, vehicle: Klucel (hydroxypropylcellulose) (HPC)) of the same molecule?
The T/C was 98 % of control.
